Data reported in patent publication US11635429B2 (priority 2019, dated 2023).

tested on: anti-diacetoxyscirpenol monoclonal antibody secreted by hybridoma cell strain DAS5G11E7; type: binding, mouse

Row | Molecule | Cross reactivity [%]
1 | 3-acetyldeoxynivalenol [3-acetyl-DON] | <0.01
2 | CC1=CC2O[C@@H]3[C@H](O)C[C@](C)(C2(CO)C(O)C1=O)[C@]31CO1 (stereo partly shown) [DON, vomitoxin] | <0.01
3 | C[C@@H]1Cc2c(Cl)cc(C(=O)N[C@@H](Cc3ccccc3)C(=O)O)c(O)c2C(=O)O1 [OTA, ochratoxin] | <0.01
4 | HT-2 toxin | <0.01
